For the experiment, the system named is MDA-MB-468 breast. As to the kind of experiment: NCI tumour cell line growth inhibition, 48 h.

SMILES strings stand for the structures.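 Where inhibition never reached the appropriate level, the endpoint shown equals the highest concentration tested. Otherwise, values were interpolated linearly from a five-concentration, 48-hour dose response in 96-well plates. GI50 marks 50% less growth. TGI is the concentration that stops growth completely.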

With `Nc1c(C(=O)c2cccc(OCCN3CCOCC3)c2)cnn1-c1ccc(F)cc1`, the GI50 was over 25 µM and the TGI is over 25 µM.

In the case of `Nc1ccn([C@H]2C[C@@H](O)[C@@H](CO)S2)c(=O)n1`, the GI50 is over 100 µM and the TGI is over 100 µM.

Turning to `N#CC1C(=N)Cc2ccccc2-c2ccccc21` (centres undefined), the GI50 is 3.15 µM and the TGI was determined as 13.4 µM.

As to `COc1ncc(-c2nc3c(n2C(C)C)[C@H](c2ccc(Cl)cc2)N(c2cc(Cl)cn(C)c2=O)C3=O)c(OC)n1`, the GI50 was 18.2 µM and the TGI was found to be 71.4 µM.

Consider `CN1CCN(CC(=O)Nc2ccc3ncnc(Nc4ccc(Oc5cccc(C(F)(F)F)c5)c(Cl)c4)c3c2)CC1`, for which the GI50 was 1.16 µM and the TGI came out at 2.66 µM.

With `COC(=O)c1c2c(c(C)[n+]([O-])c1C)C(=O)C=C(NCc1cccc(OC)c1)C2=O`, the GI50 is 0.257 µM and the TGI amounted to 0.797 µM.

Regarding `Nc1ccc(C#Cc2cncnc2Nc2ccc(OCc3cccc(F)c3)c(Cl)c2)cc1`, the GI50 is 1.15 µM and the TGI was 9.24 µM.

Turning to `COC(=O)[C@]12CC[C@@H](C)[C@H](C)[C@@H]1C1=CC[C@@H]3[C@@]4(C)C(C=O)=C[C@@](C)(COC(C)=O)[C@@H]4[C@H](O)C[C@@]3(C)[C@]1(C)CC2`, the GI50 is 2.04 µM and the TGI stood at 4.4 µM.

`O=C1C(Cl)=C(Nc2ccc3cn[nH]c3c2)C(=O)c2ccccc21`: the GI50 is 1.14 µM and the TGI came to 2.4 µM.

In the case of `COc1ccc2nc(NCCCNCCO)c3sc4ccc(F)cc4c(=O)c3c2c1`, the GI50 is 1.71 µM and the TGI was found to be 3.28 µM.

For `CCCCCCCCOc1ccc(/C=N/Nc2cc(C)nc3ccc(Cl)cc23)cc1`, the GI50 is 1.79 µM and the TGI is 3.42 µM.

As for `COc1ccc(/C=C(/C(=O)N2CCCC2)c2cc(OC)c(OC)c(OC)c2)cc1N`, the GI50 is 1.28 µM and the TGI is over 100 µM.

For the compound `C/C=C(\C)C(=O)O[C@@H]1C(O)[C@H]2OC(COC(=O)CCC(=O)CCCCCC[C@H](CCCCC)O[C@@H]3OC(C)[C@H](OC(C)=O)C(O)[C@H]3O2)[C@H]1OC(=O)/C=C/c1ccccc1` (some centres undefined), the GI50 is under 0.01 µM and the TGI was 1.18 µM.

Regarding `CCOC(=O)/C=C1\SC(=Nc2ccc(C#N)cc2)N(CCN2C(=O)/C(=C/C(=O)OCC)SC2=Nc2ccc(C#N)cc2)C1=O`, the GI50 was 3.1 µM and the TGI was determined as 17.4 µM.

In the case of `C=C(CNCCc1ccc(O)cc1)[C@@H]1CC[C@]2(CO)CC[C@]3(C)[C@H](CC[C@@H]4[C@@]5(C)CCC(=O)C(C)(C)[C@@H]5CC[C@]43C)[C@@H]12`, the GI50 was 1.53 µM and the TGI was 3.1 µM.

Regarding `Nc1nc2c(c3ncccc13)C(c1cccc(Cl)c1)Cc1ncccc1-2` (centres undefined), the GI50 was 1.61 µM and the TGI was 22.7 µM.

Take `O=C1/C(=C/c2ccccc2)SC(=Nc2ccccc2)N1Nc1ccccc1`: the GI50 was 14 µM and the TGI is over 100 µM.

With `COc1ccc(-c2cnc(-c3ccc(F)cc3)[nH]2)cc1`, the GI50 is 2.22 µM and the TGI was found to be 7 µM.

On to `COc1cc2cc(Oc3ccc(NC(=O)Nc4ccccc4)cc3)c(C)nc2cc1OCCN1CCCCC1`, for which the GI50 is 5.64 µM and the TGI came out at 10.8 µM.

As for `C=C1C(=O)O[C@H]2[C@H]1CC/C(COC(=O)C(=O)c1c[nH]c3ccc(OC)cc13)=C\CC[C@@]1(C)O[C@@H]21`, the GI50 was 2.17 µM and the TGI was 4.77 µM.

Consider `Cc1ccc(N=C2CSc3nnc(-c4csc5c4CCCC5)n3N2)cc1`, for which the GI50 is 0.142 µM and the TGI is over 50 µM.

For `N#C/C(=C\c1ccc(Br)cc1)n1nnc2cccc(F)c21`, the GI50 was 0.327 µM and the TGI worked out at 1.15 µM.

Take `O=C(Nc1cnn2ccc(N3CCC[C@@H]3c3cc(F)ccc3F)nc12)N1CC[C@H](O)C1`: the GI50 was over 100 µM and the TGI is over 100 µM.

As for `COc1cc(NN=C(c2ccc(O)cc2)c2ccc(O)cc2)c([N+](=O)[O-])cc1[N+](=O)[O-]`, the GI50 was 12.5 µM and the TGI was determined as 25 µM.

Consider `CN1CCN(c2ccc(-c3cnc4c(-c5csc6ccccc56)cnn4c3)cc2)CC1`, for which the GI50 is over 15 µM and the TGI is over 15 µM.

As for `CC[N+](CC)=c1ccc2nc3c(cc(NCc4ccccc4)c4ccccc43)oc-2c1`, the GI50 was 0.134 µM and the TGI came to 1.07 µM.

Take `COc1ccc(C2NCCc3c2[nH]c2ccccc32)cc1CN1CCN(c2ccc(F)cc2)CC1` (centres undefined): the GI50 was 1.67 µM and the TGI is 3.36 µM.

For `Cn1ccc(=Nc2ccc(NC(=O)c3ccc(N=c4ccn(C)c5ccc([N+](=O)[O-])cc45)cc3)cc2)cc1`, the GI50 is 7.28 µM and the TGI was over 100 µM.

Take `Nc1nc2ccc([C@@H]3Nc4ccc5[nH]ncc5c4[C@H]4[C@H]5CCC(C5)[C@H]43)cc2s1`: the GI50 was 0.403 µM and the TGI came to 2.53 µM.

As for `CS(=O)(=O)N1CCN(Cc2cc3nc(-c4cccc5[nH]ncc45)nc(N4CCOCC4)c3s2)CC1` (tested in a mixture with another compound), the GI50 was 0.109 µM and the TGI is 0.697 µM.

In the case of `CN(C)CCNC(=O)c1cccc2cc3ccccc3nc12`, the GI50 is 1.26 µM and the TGI came out at 4.21 µM.

Regarding `NC1=NC(c2ccccc2)N=C(Nc2ccccc2)N1` (centres undefined), the GI50 is 44.4 µM and the TGI is over 100 µM.

For the compound `Cc1ccc(S(=O)(=O)Oc2ccc3c4c(c(=O)oc3c2)CCCCC4)cc1`, the GI50 is 2.77 µM and the TGI is over 100 µM.

Take `COC(=O)c1ccc(=O)c2nc3/c(=C/O)c(O)cc(=O)c3[nH]c12`: the GI50 was 0.937 µM and the TGI was found to be 48.5 µM.

In the case of `CC(CN)[C@@H]1CC[C@]2(CO)CC[C@]3(C)[C@H](CC[C@@H]4[C@@]5(C)CCC(NCCO)C(C)(C)[C@@H]5CC[C@]43C)[C@@H]12` (some centres undefined), the GI50 was 1.48 µM and the TGI came to 3.08 µM.

Take `CCNC(=O)Oc1ccc(/C(=C(/C)c2ccc(Cl)cc2)c2ccc(OCCN3CCCCCC3)cc2)cc1`: the GI50 is 1.44 µM and the TGI turned out to be 3.07 µM.

Regarding `O=C(Oc1ccc([N+](=O)[O-])cc1)N1CCN(Cc2cccc(Oc3ccccc3)c2)CC1`, the GI50 was 19.1 µM and the TGI is over 100 µM.

For the origin of these results see PubChem BioAssay (NCI).
